According to US12077503B2, “Substituted cyclic amides and their use as herbicides” (FMC CORPORATION, priority 2015, dated 2024):
Like-named read-outs stand apart in the source and are kept apart here.

Columns and labels:
Assay type in all cases: in vivo
[1] = system: pigweed (Amaranthus retroflexus); experiment: Test A postemergence; settings: Amaranthus retroflexus, post-emergence, 240 h; for pest or weed control at 125 g/ha: 125 g ai/ha, postemergence
Outline: (§1)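 Compounds were formulated in a non-phytotoxic solvent mixture with surfactant and applied as a preemergence directed soil spray after seeding, or sprayed postemergence over plants 2 to 10 cm tall at the one- to two-leaf stage. Evaluation after about 10 d compared treated with untreated controls, using a scale from 0 (no effect) to 100 (complete control).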

[2] = system: Galium (catchweed bedstraw, Galium aparine); experiment: Test A postemergence; settings: Galium, post-emergence, 240 h; for pest or weed control at 125 g/ha: 125 g ai/ha, postemergence
Outline: as §1

[3] = system: Kochia (Kochia scoparia); experiment: Test A postemergence; settings: Bassia scoparia, post-emergence, 240 h; for pest or weed control at 125 g/ha: 125 g ai/ha, postemergence
Outline: as §1

[4] = system: blackgrass (Alopecurus myosuroides); experiment: Test A postemergence; settings: Alopecurus myosuroides, post-emergence, 240 h; for pest or weed control at 125 g/ha: 125 g ai/ha, postemergence
Outline: as §1

[5] = system: wheat (Triticum aestivum); experiment: Test A postemergence; settings: Triticum aestivum, post-emergence, 240 h; for plant injury at 125 g/ha: 125 g ai/ha, postemergence
Outline: as §1

[6] = system: ragweed (common ragweed, Ambrosia elatior); experiment: Test A postemergence; settings: Ambrosia artemisiifolia, post-emergence, 240 h; for pest or weed control at 125 g/ha: 125 g ai/ha, postemergence
Outline: as §1

[7] = system: barnyardgrass (Echinochloa crus-galli); experiment: Test A postemergence; settings: Echinochloa crus-galli, post-emergence, 240 h; for pest or weed control at 125 g/ha: 125 g ai/ha, postemergence
Outline: as §1

[8] = system: corn (Zea mays); experiment: Test A postemergence; settings: Zea mays, post-emergence, 240 h
Outline: as §1

[9] = system: giant foxtail (Setaria faberii); experiment: Test A postemergence; settings: Setaria faberi, post-emergence, 240 h; for pest or weed control at 125 g/ha: 125 g ai/ha, postemergence
Outline: as §1

[10] = system: ryegrass, Italian (Italian ryegrass, Lolium multiflorum); experiment: Test A preemergence; settings: Lolium multiflorum, pre-emergence, 240 h; for pest or weed control at 125 g/ha: 125 g ai/ha, preemergence, visual rating after approx. 10 d, 0 to 100 scale where 0 is no effect and 100 is complete control
Outline: as §1

[11] = system: pigweed (Amaranthus retroflexus); experiment: Test A preemergence; settings: Amaranthus retroflexus, pre-emergence, 240 h; for pest or weed control at 125 g/ha: 125 g ai/ha, preemergence, visual rating after approx. 10 d, 0 to 100 scale where 0 is no effect and 100 is complete control
[12] = system: Kochia (Kochia scoparia); experiment: Test A preemergence; settings: Bassia scoparia, pre-emergence, 240 h; for pest or weed control at 125 g/ha: 125 g ai/ha, preemergence, visual rating after approx. 10 d, 0 to 100 scale where 0 is no effect and 100 is complete control
Outline: as §1

[13] = system: ragweed (common ragweed, Ambrosia elatior); experiment: Test A preemergence; settings: Ambrosia artemisiifolia, pre-emergence, 240 h; for pest or weed control at 125 g/ha: 125 g ai/ha, preemergence, visual rating after approx. 10 d, 0 to 100 scale where 0 is no effect and 100 is complete control
Outline: as §1

[14] = system: barnyardgrass (Echinochloa crus-galli); experiment: Test A preemergence; settings: Echinochloa crus-galli, pre-emergence, 240 h; for pest or weed control at 125 g/ha: 125 g ai/ha, preemergence, visual rating after approx. 10 d, 0 to 100 scale where 0 is no effect and 100 is complete control
Outline: as §1

[15] = system: giant foxtail (Setaria faberii); experiment: Test A preemergence; settings: Setaria faberi, pre-emergence, 240 h; for pest or weed control at 125 g/ha: 125 g ai/ha, preemergence, visual rating after approx. 10 d, 0 to 100 scale where 0 is no effect and 100 is complete control
Outline: as §1

[16] = read-out: Plant response rating, Ryegrass, Italian
[17] = read-out: Plant response rating, Pigweed
[18] = read-out: Plant response rating, Kochia
[19] = read-out: Plant response rating, Ragweed
[20] = read-out: Plant response rating, Barnyardgrass
[21] = read-out: Plant response rating, Foxtail, Giant

CN1C[C@H](c2cccc(S(C)(=O)=O)c2)[C@@H](C(=O)Nc2cccc(F)c2F)C1=O (racemic) [Compound 777]
pest or weed control at 125 g/ha ([1]; visual injury after approximately 10 d, 0 to 100 scale (0 no effect, 100 complete control), read-out: Plant response rating, Pigweed): 0%
pest or weed control at 125 g/ha ([2]; visual injury after approximately 10 d, 0 to 100 scale (0 no effect, 100 complete control), read-out: Plant response rating, Galium): 0%
pest or weed control at 125 g/ha ([3]; visual injury after approximately 10 d, 0 to 100 scale (0 no effect, 100 complete control), read-out: Plant response rating, Kochia): 0%
pest or weed control at 125 g/ha ([4]; visual injury after approximately 10 d, 0 to 100 scale (0 no effect, 100 complete control), read-out: Plant response rating, Blackgrass): 0%
plant injury at 125 g/ha ([5]; visual injury after approximately 10 d, 0 to 100 scale (0 no effect, 100 complete control), read-out: Plant response rating, Wheat): 30%
pest or weed control at 125 g/ha ([6]; visual injury after approximately 10 d, 0 to 100 scale (0 no effect, 100 complete control), read-out: Plant response rating, Ragweed): 0%
pest or weed control at 125 g/ha ([7]; visual injury after approximately 10 d, 0 to 100 scale (0 no effect, 100 complete control), read-out: Plant response rating, Barnyardgrass): 70%
Corn plant response rating (crop injury, 0 = no effect, 100 = complete kill) at 125 g/ha ([8]; 125 g ai/ha, postemergence, visual injury after approximately 10 d, 0 to 100 scale (0 no effect, 100 complete control)): 40%
pest or weed control at 125 g/ha ([9]; visual injury after approximately 10 d, 0 to 100 scale (0 no effect, 100 complete control), read-out: Plant response rating, Foxtail, Giant): 30%
pest or weed control at 125 g/ha [10, 16]: 40%
pest or weed control at 500 g/ha ([10]; 500 g ai/ha, Preemergence, visual injury vs untreated controls after approximately 10 d, read-out: Ryegrass, Italian plant response rating (0 to 100 scale where 0 is no effect and 100 is complete control)): 70%
pest or weed control at 125 g/ha [11, 17]: 0%
pest or weed control at 500 g/ha ([11]; 500 g ai/ha, Preemergence, visual injury vs untreated controls after approximately 10 d, read-out: Pigweed plant response rating (0 to 100 scale where 0 is no effect and 100 is complete control)): 40%
pest or weed control at 125 g/ha [12, 18]: 0%
pest or weed control at 500 g/ha ([12]; 500 g ai/ha, Preemergence, visual injury vs untreated controls after approximately 10 d, read-out: Kochia plant response rating (0 to 100 scale where 0 is no effect and 100 is complete control)): 0%
pest or weed control at 125 g/ha [13, 19]: 0%
pest or weed control at 500 g/ha ([13]; 500 g ai/ha, Preemergence, visual injury vs untreated controls after approximately 10 d, read-out: Ragweed plant response rating (0 to 100 scale where 0 is no effect and 100 is complete control)): 0%
pest or weed control at 125 g/ha [14, 20]: 70%
pest or weed control at 500 g/ha ([14]; 500 g ai/ha, Preemergence, visual injury vs untreated controls after approximately 10 d, read-out: Barnyardgrass plant response rating (0 to 100 scale where 0 is no effect and 100 is complete control)): 100%
pest or weed control at 125 g/ha [15, 21]: 80%
pest or weed control at 500 g/ha ([15]; 500 g ai/ha, Preemergence, visual injury vs untreated controls after approximately 10 d, read-out: Foxtail, Giant plant response rating (0 to 100 scale where 0 is no effect and 100 is complete control)): 100%

CN1CC[C@H](c2ccc3c(c2)OC(F)(F)O3)[C@@H](C(=O)Nc2ccc(F)c(F)c2F)C1=O [Compound 813]
pest or weed control at 125 g/ha ([1]; visual injury rating after approximately 10 d, read-out: Pigweed plant response rating (0 to 100 scale, 0 no effect, 100 complete control)): 0%
pest or weed control at 31 g/ha ([1]; Postemergence, 31 g ai/ha, visual injury after approx. 10 d, 0 to 100 scale, 0 no effect, 100 complete control, read-out: Plant response rating, Pigweed): 0%
pest or weed control at 125 g/ha ([2]; visual injury rating after approximately 10 d, read-out: Galium plant response rating (0 to 100 scale, 0 no effect, 100 complete control)): 30%
pest or weed control at 31 g/ha ([2]; Postemergence, 31 g ai/ha, visual injury after approx. 10 d, 0 to 100 scale, 0 no effect, 100 complete control, read-out: Plant response rating, Galium): 20%
pest or weed control at 125 g/ha ([3]; visual injury rating after approximately 10 d, read-out: Kochia plant response rating (0 to 100 scale, 0 no effect, 100 complete control)): 0%
pest or weed control at 31 g/ha ([3]; Postemergence, 31 g ai/ha, visual injury after approx. 10 d, 0 to 100 scale, 0 no effect, 100 complete control, read-out: Plant response rating, Kochia): 0%
pest or weed control at 125 g/ha ([4]; visual injury rating after approximately 10 d, read-out: Blackgrass plant response rating (0 to 100 scale, 0 no effect, 100 complete control)): 80%
pest or weed control at 31 g/ha ([4]; Postemergence, 31 g ai/ha, visual injury after approx. 10 d, 0 to 100 scale, 0 no effect, 100 complete control, read-out: Plant response rating, Blackgrass): 30%
plant injury at 125 g/ha ([5]; visual injury rating after approximately 10 d, read-out: Wheat plant response rating (0 to 100 scale, 0 no effect, 100 complete control)): 30%
plant injury at 31 g/ha ([5]; Postemergence, 31 g ai/ha, visual injury after approx. 10 d, 0 to 100 scale, 0 no effect, 100 complete control, read-out: Plant response rating, Wheat): 0%
pest or weed control at 125 g/ha ([6]; visual injury rating after approximately 10 d, read-out: Ragweed plant response rating (0 to 100 scale, 0 no effect, 100 complete control)): 0%
pest or weed control at 31 g/ha ([6]; Postemergence, 31 g ai/ha, visual injury after approx. 10 d, 0 to 100 scale, 0 no effect, 100 complete control, read-out: Plant response rating, Ragweed): 0%
pest or weed control at 125 g/ha ([7]; visual injury rating after approximately 10 d, read-out: Barnyardgrass plant response rating (0 to 100 scale, 0 no effect, 100 complete control)): 80%
pest or weed control at 31 g/ha ([7]; Postemergence, 31 g ai/ha, visual injury after approx. 10 d, 0 to 100 scale, 0 no effect, 100 complete control, read-out: Plant response rating, Barnyardgrass): 40%
plant injury at 125 g/ha ([8]; 125 g ai/ha, postemergence, visual injury rating after approximately 10 d, read-out: Corn plant response rating (0 to 100 scale, 0 no effect, 100 complete control)): 40%
Corn plant response rating (crop injury, 0 = no effect, 100 = complete kill) at 31 g/ha ([8]; Postemergence, 31 g ai/ha, visual injury after approx. 10 d, 0 to 100 scale, 0 no effect, 100 complete control): 30%
pest or weed control at 125 g/ha ([9]; visual injury rating after approximately 10 d, read-out: Foxtail, Giant plant response rating (0 to 100 scale, 0 no effect, 100 complete control)): 80%
pest or weed control at 31 g/ha ([9]; Postemergence, 31 g ai/ha, visual injury after approx. 10 d, 0 to 100 scale, 0 no effect, 100 complete control, read-out: Plant response rating, Foxtail, Giant): 70%
pest or weed control at 125 g/ha [10, 16]: 20%
pest or weed control at 31 g/ha ([10]; Preemergence, 31 g ai/ha, 0 to 100 scale (0 no effect, 100 complete control), read-out: Plant response rating, Ryegrass, Italian): 0%
pest or weed control at 125 g/ha [11, 17]: 0%
pest or weed control at 31 g/ha ([11]; Preemergence, 31 g ai/ha, 0 to 100 scale (0 no effect, 100 complete control), read-out: Plant response rating, Pigweed): 0%
pest or weed control at 125 g/ha [12, 18]: 0%
pest or weed control at 31 g/ha ([12]; Preemergence, 31 g ai/ha, 0 to 100 scale (0 no effect, 100 complete control), read-out: Plant response rating, Kochia): 0%
pest or weed control at 125 g/ha [13, 19]: 0%
pest or weed control at 31 g/ha ([13]; Preemergence, 31 g ai/ha, 0 to 100 scale (0 no effect, 100 complete control), read-out: Plant response rating, Ragweed): 0%
pest or weed control at 125 g/ha [14, 20]: 80%
pest or weed control at 31 g/ha ([14]; Preemergence, 31 g ai/ha, 0 to 100 scale (0 no effect, 100 complete control), read-out: Plant response rating, Barnyardgrass): 20%
pest or weed control at 125 g/ha [15, 21]: 90%
pest or weed control at 31 g/ha ([15]; Preemergence, 31 g ai/ha, 0 to 100 scale (0 no effect, 100 complete control), read-out: Plant response rating, Foxtail, Giant): 70%
